From patent publication US9938240B2, “Fluorinated derivatives of 3-hydroxypyridin-4-ones” (Apotex Technologies Inc., priority 2009, dated 2018) come the findings set out here.

A short description of series [1]: pKa determination by potentiometric titration. Format: physicochemical. The note with it: 0.1M aqueous NaCl/MeOH, 1/1, v/v.
Series [2] in a line: Distribution coefficient determination, D7.4 (1-octanol / K2HPO4 buffer). The class given is physicochemical. The note with it: 1-octanol / K2HPO4 buffer 50 mM pH 7.4. Here is the method:
K2HPO4 buffer (50 mM, pH=7.4) and 1-octanol were used as the aqueous phase and the organic phase, respectively. The K2HPO4 buffer and 1-octanol were mixed, and pre-saturated with each other before use.
In a typical experiment, an aqueous solution of Apo6995 (3-hydroxy-2-methyl-1-(2,2,2-trifluoroethyl)pyridin-4(1H)-one) was prepared by weighing out 3 mg of the compound into a 10-mL test-tube. It was then mixed with K2HPO4 buffer (2 mL) and sonicated for 30 minutes with frequent vortexing. The solution was then filtered through HPLC syringe filter (4 mm PVDF syringe filter 0.45 μM) to obtain the aqueous solution.
One mL of this aqueous solution was pipetted out into another 10-mL test-tube and mixed with 1 mL of 1-octanol. The mixture was then vortexed for 1 hour. The solution was centrifuged at 2000 rpm for 10 minutes. A small amount of the lower aqueous layer was carefully pipetted out and analyzed by HPLC to obtain the peak height (HF). The distribution coefficient, D7.4, was calculated using the following equation: D7.4=(HI−HF)/HF.

For series [3], the system named is human neuroblastoma MC-65 cells. Briefly: cells. Conditions: for EC100 / minimal effective concentration: Homo sapiens, MC65, 48 h; for EC100: read-out: EC100 (maximum effective concentration); for minimal effective concentration: read-out: TH (threshold protective concentration); for CC2 (cytotoxic concentration): MC-65, cultured without tetracycline; for CC2 (cytotoxic concentration) / CC1 (cytotoxic concentration): viability below 80%; for CC1 (cytotoxic concentration): MC-65, presence of TET. The method in brief: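 MC-65 cells (conditional Aβ fusion-protein expression, TET-repressed) were washed free of TET and FBS, then exposed to compound ~48 h in serum-free medium without or with 1 μg/mL TET.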

A short description of series [4]: pKa determination by spectrophotometric titration. The class given is physicochemical. The note with it: for pKa: 0.1 M NaCl solution, read-out: pKa (amine); for Logβ011 / Logβ012 / Logβ013: cumulative ligand protonation; for Logβ011 / Logβ012 / Logβ013 / pKa1(L) / pKa2(L) / pKa3(L): Example 53; for pKa1(L) / pKa2(L) / pKa3(L): ligand, spectrophotometric titration. Here is the method: The pKa values of ligands can be determined by spectrophotometric titration when both the conjugated acid and base absorb in the UV-visible region. In a typical experiment, the sample solution was prepared by the following method: Apo7041 stock solution (12.74 mg) was weighed into a 10 mL volumetric flask, and 0.1 M NaCl solution was added to volume. The mixture was sonicated and voltexed to give a clear colorless solution. The concentration of Apo7041 of this stock solution is 5.1×10^−3 M.
Apo7041 sample solution: 727 μL of the above stock solution was transferred into a 50 mL volumetric flask by using a 1000 μL digital pipet, and 0.1 M NaCl was added to volume. The resulting solution was vortexed to mix to give a sample solution. The concentration of Apo7041 of this sample solution is 7.4×10^−5 M. 20 mL of the sample solution was transferred into a 35 mL beaker by using a 10 mL digital pipet. The sample solution was circulated between the beaker and the flow cell using a sipper system.
The sample solution was titrated against standard hydrochloric acid solutions at 22° C. to reach pH 1.11. After each addition of acid the solution was allowed to equilibrate until a constant pH reading was reached. The pH and the UV-Vis spectrum were recorded for each measurement. The solution was titrated until there was no obvious change in the spectra after several subsequent additions of acid. Thus, 30 measurements were recorded.
The resulting data set was then analyzed using pHAB (Peter Gans, University of Leeds). The pKa values were obtained using the model: LH+H^+⇄LH2^+, and LH2^++H^+⇄LH3^2+ (pKa3). Thus, Apo7041 has pKa2=3.51, and pKa3=1.23 as determined spectrophotometrically.
The pKa values of Apo7323 were determined by spectrophotometric titration using an Agilent 8453 UV-visible spectroscopy system (see Example 26).

Series [5] in a line: Pharmacokinetics following oral administration to rats. The note with it: rat, oral 50 mg/kg in 0.5% CMC; for Brain AUC_D_obs / Brain Cmax_D / Plasma AUC_D_obs / Plasma Cmax_D: dose-normalized. Format: in vivo, male Sprague Dawley rats. Here is the method: Adult male Sprague Dawley rats (275-325 g, Charles River Laboratories, Saint Constant, Quebec) were orally dosed with 50 mg/kg of test compound (Apo7323, Apo7433, Apo7435 or Apo7448) suspended in 0.5% carboxymethylcellulose (CMC) in water. For each test compound, samples were obtained from the plasma and brain of three animals per time point, at 0 (dosed with 0.5% CMC), 0.25, 0.5, 1, 2, 4, 8 and 12 h following administration. The concentration of the compound in rat plasma and brain samples was determined by HPLC-UV. Pharmacokinetic parameters were computed using the PKPlus Module in GastroPlus® ver. 8.0 (Simulations Plus Inc., Lancaster, Calif.). Calculation method: linear trapezoidal with linear interpolation.

Where [6] appears, read: spectrophotometric, 0.1 M NaCl, 22° C.

As usually defined, the pKa is the pH at which an ionisable group is half protonated.

As to `Cc1c(O)c(=O)ccn1C` [Deferiprone, 3-hydroxy-1,2-dimethylpyridin-4(1H)-one, reference compound], in series [1], the pKa1 result was “pKa1 = 10.6” and the pKa2 entry is reported as “pKa2 = 4.0”. In series [2], the D7.4 stood at 0.17 and the “Log D7.4” value is −0.77.
Take `CN(C)C(c1c(O)c(=O)ccn1C)C(F)(F)F` (stereo not shown) [Apo7041, 2-[1-(dimethylamino)-2,2,2-trifluoroethyl]-3-hydroxy-1-methylpyridin-4(1H)-one]: in series [1], the pKa1 is 10.1, the “pKa1 + pKa2” value was found to be 13.3 and the pKa2 entry is “pKa2 = 3.2”. In series [3], the EC100 was found to be 10 µM, the minimal effective concentration is 0.1 µM, the “CC2 (cytotoxic concentration)” value was determined as 80 µM and the “CC1 (cytotoxic concentration)” value came out at 10 µM. In series [4] (amino group of the ligand), the pKa is 3.5 and the “pKa (amine)” value worked out at 3.51. Further, in series [4] (setting [6]), the pKa2 came to 3.51 and the pKa3 amounted to 1.23.
`CN(C)Cc1c(O)c(=O)ccn1CC(F)(F)F` [Apo7067, 2-[(dimethylamino)methyl]-3-hydroxy-1-(2,2,2-trifluoroethyl)pyridin-4(1H)-one]: in series [3], the EC100 was found to be 10 µM, the minimal effective concentration was determined as 0.1 µM, the “CC2 (cytotoxic concentration)” value came out at 80 µM and the “CC1 (cytotoxic concentration)” value was found to be 80 µM. The pKa in series [4] (amino group of the ligand) was 6.1. In addition, in series [4], the Logβ011 is reported as 9.6, the Logβ012 came out at 15.7, the Logβ013 stood at 16.5 and the “pKa1(L)” value came out at 9.6. Moreover, in series [4], the “pKa2(L)” value was 6.1 and the “pKa3(L)” value is listed as 0.8. The D7.4 in series [2] came to 2.82. The logD in series [2] (read-out: Log D7.4) stood at 0.45.
Turning to `Cc1c(O)c(=O)c(C(N2CCOCC2)C(F)(F)F)cn1C` (stereo not shown) [Apo7435, 3-hydroxy-1,2-dimethyl-5-(2,2,2-trifluoro-1-morpholinoethyl)pyridin-4(1H)-one], in series [5], the CL turned out to be 110 mL/min/kg, the “Brain AUC_D_obs” value worked out at 0.122 kg·µg·h/mL/mg, the “Brain Cmax_D” value is 0.102 kg·µg/mL/mg and the “Plasma AUC_D_obs” value was found to be 0.516 kg·µg·h/mL/mg. The “Plasma Cmax_D” value in series [5] came out at 0.312 kg·µg/mL/mg. In series [3], the EC100 turned out to be 10 µM, the minimal effective concentration came out at 1 µM, the “CC2 (cytotoxic concentration)” value is 40 µM and the “CC1 (cytotoxic concentration)” value turned out to be 40 µM. Also, the pKa in series [4] (amino group of the ligand) stood at 2.5. In series [4], the Logβ011 is reported as 9.8, the Logβ012 came out at 12.3, the Logβ013 came to 12.3 and the “pKa1(L)” value came to 9.8. In addition, in series [4], the “pKa2(L)” value stood at 2.5 and the “pKa3(L)” value is given as 0.0.
On to `CNC(c1cn(C)c(C)c(O)c1=O)C(F)(F)F` (stereo not shown) [Apo7056, 3-Hydroxy-1,2-dimethyl-5-[2,2,2-trifluoro-1-(methylamino)ethyl]pyridin-4(1H)-one], for which, in series [3], the EC100 came to 10 µM, the minimal effective concentration was 0.1 µM, the “CC2 (cytotoxic concentration)” value is 80 µM and the “CC1 (cytotoxic concentration)” value was found to be 80 µM. Moreover, in series [4], the Logβ011 came to 9.8, the Logβ012 is recorded as 14.7, the Logβ013 was determined as 15.1 and the “pKa1(L)” value came out at 9.8. In series [4], the “pKa2(L)” value worked out at 4.9 and the “pKa3(L)” value turned out to be 0.4.
`O=c1ccn(CC(F)(F)F)c(CN2CCOCC2)c1O` [Apo7323, 3-hydroxy-2-(morpholinomethyl)-1-(2,2,2-trifluoroethyl)pyridin-4(1H)-one]: in series [5], the CL was determined as 33.2 mL/min/kg, the “Brain AUC_D_obs” value is 1.010 kg·µg·h/mL/mg, the “Brain Cmax_D” value stood at 0.218 kg·µg/mL/mg and the “Plasma AUC_D_obs” value stood at 1.630 kg·µg·h/mL/mg. For the same compound, the “Plasma Cmax_D” value in series [5] worked out at 0.400 kg·µg/mL/mg. For the same compound, in series [3], the EC100 was 20 µM, the minimal effective concentration turned out to be 1 µM, the “CC2 (cytotoxic concentration)” value is 80 µM and the “CC1 (cytotoxic concentration)” value is 80 µM. Moreover, the pKa in series [4] (amino group of the ligand) stood at 4.2. Also, in series [4], the Logβ011 is recorded as 9.2, the Logβ012 amounted to 13.4, the Logβ013 amounted to 14.2 and the “pKa1(L)” value came out at 9.2. Moreover, in series [4], the “pKa2(L)” value came out at 4.2 and the “pKa3(L)” value is listed as 0.8.
